# pIC50: −log10 of the molar value.
# Legend:
# [1] = system: Hep3B cells; assay: Anti-proliferative activity on Hep3B cell line (CellTiter-Glo); format: cell-based
# Method: EMEM medium, penicillin/streptomycin antibiotics were purchased from Wisent, and fetal bovine serum was purchased from Biosera. CellTiter-Glo (chemiluminescent cell viability assay reagent) reagent was purchased from Promega. The Hep3B cell line was purchased from the Cell Bank of the Chinese Academy of Sciences. Nivo multimode microplate reader (PerkinElmer).
# Hep3B cells (liver cancer) were seeded in a white 96-well plate with 80 μL of cell suspension per well containing 3000 Hep3B cells. The cell plate was incubated overnight in a carbon dioxide incubator. The compound to be tested was 5-fold diluted to the ninth concentration with a multi-channel pipette, that is, the compound to be tested was diluted from 2 mM to 5.12 nM, and an experiment for the sample assayed in duplicate was set up. 78 μL of culture medium was added to the middle plate. According to the corresponding position, 2 µL per well of the gradient-diluted compound was transferred to the middle plate, then 20 μL per well was transferred to the cell plate after mixing well. […] Another cell plate was prepared, and the signal value as the maximum value (Max value in the following equation) was read on the day of drug addition to participate in data analysis. […] A multimode microplate reader was used for reading. […] A multimode microplate reader was used for reading. […]
# [2] = system: HepG2 cells; assay: Anti-proliferative activity on HepG2 cell line (CellTiter-Glo); format: cell-based, human
# Method: DMEM medium, penicillin/streptomycin antibiotics were purchased from Wisent, and fetal bovine serum was purchased from Biosera. CellTiter-Glo (chemiluminescent cell viability assay reagent) reagent was purchased from Promega. The HepG2 cell line was purchased from the Cell Bank of the Chinese Academy of Sciences. Nivo multimode microplate reader (PerkinElmer).
# HepG2 cells (liver cancer) were seeded in a white 384-well plate with […] of cell suspension per well containing 1000 HepG2 cells. The cell plate was incubated overnight in a carbon dioxide incubator. The compound to be tested was 3-fold diluted to the ninth concentration with a multi-channel pipette, that is, the compound to be tested was diluted from 200 µM to 30 nM, and an experiment for the sample assayed in duplicate was set up. […] of culture medium was added to the middle plate. According to the corresponding position, […] per well of the gradient-diluted compound was transferred to the middle plate, then […] per well was transferred to the cell plate after mixing well. […] Another cell plate was prepared, and the signal value as the maximum value (Max value in the following equation) was read on the day of drug addition to participate in data analysis. […] A multimode microplate reader was used for reading. […] A multimode microplate reader was used for reading. […]
# [3] = system: HepG2-luc orthotopic xenograft tumor; assay: In vivo pharmacodynamics on orthotopic xenograft tumor model of human liver cancer HepG2; set-up: species or system Balb/C nude mice; conditions: for Bioluminescence (Day 1) / Bioluminescence (Day 21): mean, n=6 (Table 8); for Bioluminescence (Day 21) / RBL (Day 21), relative tumor signal growth value / T/C (%) (Day 21) / TGI (%) (Day 21) / T/Cweight (%) / Tumor weight (Day 21): Day 21; for T/Cweight (%): TWtreatment/TWvehicle; for Tumor weight (Day 21): mean ± SEM, n=6
# Method: In this experiment, orthotopic xenograft tumor model of HepG2 in a nude mouse was used to evaluate the anti-tumor effect of the compound.
# Female Balb/C nude mice, 6 to 8 weeks old, weighing 18 to 22 g, fetal bovine serum […], EMEM medium (Cat. No. 30-2003), phosphate buffer, Antibiotic-Antimycotic (Cat. No. 15240-062), Matrigel, and trypsin.
# 1. Preparation of cell culture: HepG2-luc cells were cultured in monolayer in vitro. The culture conditions were that 10% heat-inactivated fetal bovine serum was added to EMEM medium and the cells were cultured in an incubator containing 5% CO2 at 37° C. Digestion with trypsin-EDTA was performed twice a week for passaging. When the cell saturation was 80% to 90%, the cells were digested with trypsin-EDTA, counted, and resuspended in PBS and Matrigel (PBS: Matrigel=1:1), and the density was 166.67×10^6 cells/mL.
# 2. Tumor cell inoculation and grouping: Animals were anesthetized by intramuscular injection of 60 mg/kg Zoletil 50 and 1.5 mg/kg xylazine. When the animals were under deep anesthesia, the animals were properly fixed, and the abdomen skin was cleaned with 75% alcohol cotton balls. An incision of about 10 mm was cut with surgery, and 0.03 mL (PBS: Matrigel=1:1) of HepG2-luc cells was orthotopically inoculated on the left lobe of the liver of each mouse, and then the incision on the muscle layer was sutured with absorbable catgut, and the incision on the skin was sutured with a stapler. After surgery, the animals were kept warm on a warming blanket until they woke up. To relieve the pain of the animals, 2 mg/kg of meloxicam (administered subcutaneously once a day) would be administered for 3 consecutive days after surgery. 15 animals were randomly selected to detect the growth of the signal. When the signal began to rise, animals were randomly divided into groups according to the value of the bioluminescence signal, and the administration of the drug was started.
# (§1) The experimental indicator is whether the tumor growth can be delayed or whether the tumor can be cured. After tumor inoculation, the bioluminescence signal and animal weight were detected once a week, which continued until the end of the observation period. The bioluminescence signal value can be used to calculate T/C (wherein T is the administration group, and C is the average intensity value of bioluminescence of the blank control group at the set time). Calculation formula of tumor growth inhibition rate (TGI): TGI (%)=[1−(Ti−T0)/(Vi−V0)]×100, wherein Ti is the average intensity of bioluminescence of the treatment group at the set time; T0 is the average intensity of bioluminescence at the starting point of administration. Vi is the average intensity of bioluminescence of the blank control group at the set time; V0 is the average intensity of bioluminescence at the starting point of administration.
# b. Tumor growth inhibition was calculated by T/Cweight=TWtreatment/TWvehicle.
# c. The p values were obtained by analyzing the tumor weight using one-way ANOVA between the vehicle group and the treatment groups.
# [4] = Animal weight change in the HepG2 orthotopic xenograft model; format: in vivo, Balb/C nude mice; conditions: 1 and 3 mg/kg IV
# Source text: as §1
# [5] = Group 2, 1 mg/kg IV Day 0, 7, 14
# [6] = Group 3, 3 mg/kg IV Day 0, 7, 14
smiles,measurement,setting,value
O=[N+]([O-])c1cc2c(cc1Oc1cccnc1F)[C@H](OP(=O)(N1CC1)N1CC1)COC2 [Compound of formula (I)],anti-proliferative activity on Hep3B (in words),[1]; Hep3B with low expression of AKR1C3,no anti-proliferative activity
same,pIC50,"[1]; Homo sapiens, 72 h, Hep3B (low expression of AKR1C3), 3 days incubation",< 5.00
same,anti-proliferative activity on HepG2 (in words),[2]; HepG2 with high expression of AKR1C3,excellent anti-proliferative activity
same,pIC50,"[2]; Homo sapiens, 120 h, HepG2 (high expression of AKR1C3), 5 days incubation",8.13
same,inhibitory effect on tumor growth (in words),"[3]; 1 mg/kg, after 21 days of administration",significant inhibitory effect on tumor growth
same,Bioluminescence (Day 1),[3]; [5],3.51E+09 photons/second
same,Bioluminescence (Day 21),[3]; [5],4.35E+09 photons/second
same,Bioluminescence signal value of tumor tissue,"[3]; Group 2, 1 mg/kg IV, 0 days after administration (Table 10)",1.47E+09 photons/second
same,Bioluminescence signal value of tumor tissue,"[3]; Group 2, 1 mg/kg IV, 7 days after administration (Table 10)",4.34E+09 photons/second
same,Bioluminescence signal value of tumor tissue,"[3]; Group 2, 1 mg/kg IV, 14 days after administration (Table 10)",4.76E+09 photons/second
same,Bioluminescence signal value of tumor tissue,"[3]; Group 2, 1 mg/kg IV, 21 days after administration (Table 10)",4.52E+09 photons/second
same,"RBL (Day 21), relative tumor signal growth value","[3]; Group 2, 1 mg/kg IV",0.98
same,T/C (%) (Day 21),"[3]; Group 2, 1 mg/kg IV",10.04%
same,TGI (%) (Day 21),"[3]; Group 2, 1 mg/kg IV",96.97%
same,T/Cweight (%),"[3]; Group 2, 1 mg/kg IV",15.80%
same,Tumor weight (Day 21),"[3]; Group 2, 1 mg/kg IV",0.090 ± 0.036 g
same,Bioluminescence (Day 1),[3]; [6],3.51E+09 photons/second
same,Bioluminescence (Day 21),[3]; [6],1.81E+09 photons/second
same,Bioluminescence signal value of tumor tissue,"[3]; Group 3, 3 mg/kg IV, 0 days after administration (Table 10)",1.47E+09 photons/second
same,Bioluminescence signal value of tumor tissue,"[3]; Group 3, 3 mg/kg IV, 7 days after administration (Table 10)",2.77E+09 photons/second
same,Bioluminescence signal value of tumor tissue,"[3]; Group 3, 3 mg/kg IV, 14 days after administration (Table 10)",2.59E+09 photons/second
same,Bioluminescence signal value of tumor tissue,"[3]; Group 3, 3 mg/kg IV, 21 days after administration (Table 10)",2.16E+09 photons/second
same,"RBL (Day 21), relative tumor signal growth value","[3]; Group 3, 3 mg/kg IV",0.41
same,T/C (%) (Day 21),"[3]; Group 3, 3 mg/kg IV",4.22%
same,TGI (%) (Day 21),"[3]; Group 3, 3 mg/kg IV",106.21%
same,T/Cweight (%),"[3]; Group 3, 3 mg/kg IV",10.23%
same,Tumor weight (Day 21),"[3]; Group 3, 3 mg/kg IV",0.058 ± 0.013 g
same,"inhibitory effect on tumor growth (conclusion, in words)","[3]; HepG2 orthotopic model, 1 and 3 mg/kg IV",significant inhibitory effect on tumor growth
same,anti-tumor effect (in words),[3]; dose increased to 3 mg/kg,significantly enhanced
same,animal weight in the administration group (in words),[4],does not decrease significantly

# Source: US20250171474A1, “CRYSTAL FORM OF […]” (Zhejiang Yangli Pharmaceutical Technology Co., Ltd., priority 2022, published 2025)
